Read-outs that look alike come from different tables or passages of the source.
Tests used:
[1] = test system: Root knot nematode (Meloidogyne graminicola); assay: Root knot nematode gall development on wheat roots after treatment; format: in vivo; settings: foliar spraying, stock solution 200 x diluted; 400 J2 per plant 24 hours after treatment; 14 days after inoculation
Description: DISEASE/PEST: Root knot nematode (Meloidogyne graminicola) CROP: Triticum aestivum APPLICATION: Foliar application EXPERIMENT/TRIAL PROTOCOL: After seed germination, wheat plants were grown individually for 2 weeks in a PVC tube (18 cm height, 3 cm diameter) filled with a substrate of sand and a water-absorbing polymer (DCM Aquaperla). Plants were grown at 24 °C and supplied with Hoagland solution and water 3 times per week. They were treated after 2 weeks. Twenty-four hours after treatment they were inoculated with 400 nematode juveniles (second stage; J2) per plant. 8 individual plants were analyzed per treatment. Evaluation of nematode infection was done 14 days after inoculation. Development of galls on the roots was microscopically observed and counted. No females were observed yet at this early time point, in any of the treatments. The number of galls was reduced in the […], pelargonic acid ([…] decanoic acid (pm4) treated plants. Azelaic acid (pm3) had no effect on gall numbers in the used concentration. FORMULATION USED: […] PM1 is already formulated.

[2] = test system: Meligethes Aeneus; assay: Field trial, foliar spray against M. aeneus on oil seed rape; format: in vivo
Source text: DISEASE/[…] Aeneus CROP: Oil seed rape (Brassica napus spp. Campino) APPLICATION: Foliar spray EXPERIMENT/TRIAL PROTOCOL: Foliar spray was applied in the field with a motorized sprayer in spring when the insects appeared on the crop (BBCH 38-41). The trial design consisted of a randomized complete block with 4 replications per treatment. The treated area per plot was 30m^2. Used water volume was 300 L/ha. Evaluation was done by counting adult insects per 25 plants. […] Table 5: Efficacy assessment: % efficacy versus untreated (%UNCK) of M. aeneus on B. napus (field)

[3] = test system: Fusarium culmorum; assay: whole plant or invertebrate; format: in vivo; settings: Fusarium culmorum, in Triticum aestivum, 144 h, read-out: % Efficacy
[4] = test system: Plutella xylostella; assay: P. xylostella survival and leaf damage on untreated leaves after treating one leaf of Chinese cabbage; format: in vivo; parameters: key to P. xylostella leaf damage: 0=no damage or no sucking observed; 1=some damage or some sucking observed; 3=half leaf eaten or half of aphids sucking the leaf; 5=no leaf left or all insects sucking and reproducing; settings: for P. xylostella leaf damage: damage scale 0 - 5
Description: DISEASE/PEST: Plutella xylostella / Myzus persicae CROP: Chinese cabbage (Brassica rapa subsp. Pekinensis) APPLICATION: FOLIAR on one leaf of the plant EXPERIMENT/TRIAL PROTOCOL: […] Leaves were left to dry for 1 hour. P. xylostella or M. persicae were added to clip cages on non-treated leaves 1 hour or 24 hours after the applied treatment wherein those cages restrict the movement of the insects to the other leaves. Table 2. Effect on survival and leaf damage of P. xylostella and […] on untreated leaves of […].

[5] = test system: S. exigua; assay: Direct feeding of pelargonic acid (comparative example 1c); format: in vivo; settings: Table 3 is an image
Source text: Example 1c. Direct effect pelargonic acid (Comparative example) [table]

[6] = test system: English grain aphid (Sitobion avenae); assay: Survival of S. avenae on wheat after foliar spray (greenhouse pots); format: in vivo; settings: 0.65 g pelargonic acid in 500 mL water
Description: DISEASE/PEST: English grain aphid (Sitobion avenae) CROP: WHEAT (Triticum aestivum) APPLICATION: FOLIAR PROTOCOL: T. aestivum plants were grown in pots (8x8 cm) in the greenhouse until reaching a height of 10 cm. Each pot contained 50 seeds. Each treatment consisted of 3 replicates. Plants were sprayed with a handheld sprayer containing 0.65 g of pelargonic acid in 500 mL of water for the 3 replicates. Control plants were sprayed with water. Spraying solutions (as noted in the Table 1) were prepared freshly before treatment. S. avenae (N=10) were added 1 hour after spraying. Insects were counted, 1, 4, 6, 12 and 14 days after the treatment applied. Table 1. Efficacy assessment survival of S. avenae on T. aestivum (number of aphids)

[7] = test system: Cacopsylly pyri; assay: Field trial, foliar spray against C. pyri on pear trees; format: in vivo; settings: 650 g/ha
Source text: DISEASE/PEST: Cacopsylly pyri CROP: Pear trees (pyrus communis spp. Williams) APPLICATION: Foliar spray (spring - when 50% of eggs are yellow) EXPERIMENT/TRIAL PROTOCOL: Foliar spray was applied in the field with a motorized sprayer (OleomacSP126) in spring when the insects appeared on the crop (BBCH 72-75). The trial design consisted of a randomized complete block with 4 replications per treatment. The treated area per plot was 24m^2. Used water volume was […]/ha. Evaluation was done by counting nymphs per 10 shoots. […] This is due to the effect on the plant's immune system. […] Table 6. Efficacy assessment: % efficacy versus untreated (%UNCK) of C. pyri on P. communis (field)

[8] = test system: Puccinia triticina; assay: Greenhouse trial, foliar treatment against PUCCTR in wheat
[9] = test system: Leptosphaeria maculans; assay: Seed treatment lab trial against Leptosphaeria maculans in oilseed rape seedlings; format: in vivo; settings: Plenodomus lingam, in Brassica napus, 144 h, 6 days after inoculation, read-out: % Efficacy
Source text: [table] Table 8: Efficacy assessment of fatty acids in seed treatment of Leptosphaeria maculans in oilseed rape (variety Helga)

SMILES: CCCCCCCCC(=O)O [Pelargonic acid, pelargonic acid]
- number of galls [1]: reduced
- % efficacy versus untreated (%UNCK) of M. aeneus on B. napus (field) ([2]; 650 g/ha, 4DAA): 91 b %
- % efficacy versus untreated (%UNCK) of M. aeneus on B. napus (field) ([2]; 650 g/ha, 8DAA): 89 b %
- % efficacy versus untreated (%UNCK) of M. aeneus on B. napus (field) ([2]; 650 g/ha, 300 L/ha water, 1DAA): 34.60 c %
- % efficacy versus untreated (%UNCK) of M. aeneus on B. napus (field) ([2]; 975 g/ha, 1DAA): 79.25 ab %
- % efficacy versus untreated (%UNCK) of M. aeneus on B. napus (field) ([2]; 975 g/ha, 4DAA): 100 a %
- % efficacy versus untreated (%UNCK) of M. aeneus on B. napus (field) ([2]; 975 g/ha, 8DAA): 100 a %
- Emax [3]: 100%
- P. xylostella leaf damage ([4]; 0.78 mg on one leaf, insects added 1h after treatment, 6 DAT): 1
- P. xylostella leaf damage ([4]; 0.78 mg on one leaf, insects added 1h after treatment, 24h AT): 1
- P. xylostella leaf damage ([4]; 0.78 mg on one leaf, insects added 24 h after treatment, 6 DAT): 5
- P. xylostella leaf damage ([4]; 0.78 mg on one leaf, insects added 24 h after treatment, 24h AT): 4
- P. xylostella survival ([4]; 0.78 mg on one leaf, insects on non-treated leaves, added 1h after treatment, 6 DAT): growth limited to L3 stage
- larval maturation and leaf damage in P. xylostella ([4]; 0.78mg, insects introduced 1h after treatment to an untreated leaf of the same plant): reduction
- direct control of S. exigua [5]: no direct control
- survival of S. avenae on T. aestivum (number of aphids) ([6]; 4 DAT): 4.2
- survival of S. avenae on T. aestivum (number of aphids) ([6]; 6 DAT): 7.4
- survival of S. avenae on T. aestivum (number of aphids) ([6]; 10 aphids added 1 hour after spraying, 1 DAT): 3
- survival of S. avenae on T. aestivum (number of aphids) ([6]; 12 DAT): 9.6
- survival of S. avenae on T. aestivum (number of aphids) ([6]; 14 DAT): 15
- % efficacy versus untreated (%UNCK) of C. pyri on P. communis (field) ([7]; 14 DAA): 56.4 b %
- % efficacy versus untreated (%UNCK) of C. pyri on P. communis (field) ([7]; 21 DAA): 63.1 b %
- % efficacy versus untreated (%UNCK) of C. pyri on P. communis (field) ([7]; 28 DAA): 100 b %
- % efficacy versus untreated (%UNCK) of C. pyri on P. communis (field) ([7]; 800L/ha water, 3 DAA): 83.8 b %
- EFFICACY % ALL LEAV ES ([8]; foliar 1.52 g ai/ha, 13 dai): 18.6%
- EFFICACY % LEAF 1 ([8]; foliar 1.52 g ai/ha, 13 dai): 50.0%
- EFFICACY % LEAF 2 ([8]; foliar 1.52 g ai/ha, 13 dai): 5.9%
- EFFICACY % LEAF 3 ([8]; foliar 1.52 g ai/ha, 13 dai): 5.9%
- EFFICACY % LEAF 4 ([8]; foliar 1.52 g ai/ha, 13 dai): 12.5%
- EFFICACY % ALL LEAV ES ([8]; foliar 7.6 g ai/ha, 21 dai): 23.6%
- EFFICACY % LEAF 1 ([8]; foliar 7.6 g ai/ha, 21 dai): 28.6%
- EFFICACY % LEAF 2 ([8]; foliar 7.6 g ai/ha, 21 dai): 17.9%
- EFFICACY % LEAF 3 ([8]; foliar 7.6 g ai/ha, 21 dai): 29.8%
- EFFICACY % LEAF 4 ([8]; foliar 7.6 g ai/ha, 21 dai): 18.3%
- EFFICACY % ALL LEAV ES ([8]; foliar 95 g ai/ha, 13 dai): 11.3%
- EFFICACY % LEAF 1 ([8]; foliar 95 g ai/ha, 13 dai): 33.3%
- EFFICACY % LEAF 2 ([8]; foliar 95 g ai/ha, 13 dai): 0.0%
- EFFICACY % LEAF 3 ([8]; foliar 95 g ai/ha, 13 dai): 11.8%
- EFFICACY % LEAF 4 ([8]; foliar 95 g ai/ha, 13 dai): 0,0%
- EFFICACY % ALL LEAV ES ([8]; foliar 760 g ai/ha, 13 dai): 30.5%
- EFFICACY % LEAF 1 ([8]; foliar 760 g ai/ha, 13 dai): 66.7%
- EFFICACY % LEAF 2 ([8]; foliar 760 g ai/ha, 13 dai): 11.8%
- EFFICACY % LEAF 3 ([8]; foliar 760 g ai/ha, 13 dai): 0.0%
- EFFICACY % LEAF 4 ([8]; foliar 760 g ai/ha, 13 dai): 43.8%
- Emax ([9]; seed treatment 0.76 g/ton, % healthy plants vs infected seedlings): 100%
- Emax ([9]; seed treatment 3.04 g/ton): 80%
- Emax ([9]; seed treatment 6.08 g/ton): 80%
- Emax ([9]; seed treatment 7.60 g/ton): 100%
